The source made the active and inactive calls. The rule behind the calls is not given here.
test system: T-cell; experiment: Immunostimulatory activity in human Gamma delta T cells expressing Vgamma2Vdelta2T assessed as proliferation up to 300 uM after 16 to 24 hrs by [3H]thymidine incorporation assay; type: functional, cell-based; settings: not given

Row | Compound | Activity
1 | C/C(=C\CO)CO[C@@H]1O[C@H](CO)[C@@H](O)[C@H](O)[C@H]1O | inactive
2 | C/C(=C\CO[C@@H]1O[C@H](CO)[C@@H](O)[C@H](O)[C@H]1O)CO | inactive

test system: not listed separately; experiment: Immunostimulatory activity in human Gamma delta T cells expressing Vgamma2Vdelta2T assessed as proliferation after 16 to 24 hrs by [3H]thymidine incorporation assay; type: functional, cell-based; settings: T-cell

Row | Compound | EC50 [nM]
3 | CC(=O)OC[C@H]1O[C@@H](OC/C(C)=C/COP(=O)(O)OP(=O)(O)O)[C@H](OC(C)=O)[C@@H](OC(C)=O)[C@@H]1OC(C)=O | 360
4 | C/C(=C\COP(=O)(O)OP(=O)(O)O)COC(=O)c1ccc(C(=O)c2ccccc2)cc1 | 0.08
5 | C/C(=C\COP(=O)(O)OP(=O)(O)O)CO[C@@H]1O[C@H](CO)[C@@H](O)[C@H](O)[C@H]1O | 78
6 | C/C(=C\COP(=O)(O)OP(=O)(O)O)COCc1ccc(C(=O)c2ccccc2)cc1 | 1.8
7 | C/C(=C\COP(=O)(O)OP(=O)(O)O)COCc1cccc(C(=O)c2ccccc2)c1 | 1.8
8 | C/C(=C\COP(=O)(O)OP(=O)(O)O)COC(=O)c1cccc(C(=O)c2ccccc2)c1 | 0.08

test system: T-cell; experiment: Ratio of compound EC50 to isopentenyl pyrophosphate EC50 for immunostimulatory activity in human Gamma delta T cells expressing Vgamma2Vdelta2T; type: functional; settings: not given

Row | Compound | Ratio EC50
9 | C/C(=C\COP(=O)(O)OP(=O)(O)O)CO[C@@H]1O[C@H](CO)[C@@H](O)[C@H](O)[C@H]1O | 12
